Ends that are not written are not given here.

For one experiment, the system named is metastatic melanoma. Particulars: cited from earlier work.
Experiment [1] has as its system stage IV melanoma characterized by distant unresectable metastases. Put plainly: Phase II clinical trial, tumor response by RECIST criteria. In kind it is in vivo, human. Particulars: preliminary analysis on 142 patients; higher doses of Tα1.
Experimental: Trial Design phase II, randomized, stratified, open-study testing different doses of Tα1 in association with DTIC and IFNα, as first line therapy for stage IV melanoma patients characterized by distant unresectable metastases (AJCC; Journal of Clinical Oncology 2001, 19: 3635-3648) without brain metastases. The primary study end-point was tumor response, and the following combination composition were used: • DTIC (800 mg/m^2)+IFNα (3 MIU)+Tα1 (1.6 mg) (97 pts); • DTIC (800 mg/m^2)+IFNα (3 MIU)+Tα1 (3.2 mg) (97 pts); • DTIC (800 mg/m^2)+Tα1 (3.2 mg) (98 pts); • DTIC (800 mg/m^2)+IFNα (3 MIU) (94 pts);
The five groups were analyzed independently one another within the so-called “pick the winner” strategy.
Methods: Recycling every 28 days, patients were administered DTIC (800 mg/m^2) i.v. at day 1, Tα1 (1.6, 3.2 or 6.4 mg) s.c. at days 8-11 and 15-18, and IFNα (3 MIU) s.c. at day 11 and 18. Clinical response was evaluated every two cycles according to RECIST criteria (New Guidelines to Evaluate the Response to Treatment in Solid Tumors; Journal of the National Cancer Institute, 2000. 92: 205-216) utilizing a central reader.
The randomized patients were stratified according to the disease site: M1a, M1b or M1c level.
1) Patients with cutaneous, subcutaneous and/or limphnodal metastases with normal serum LDH value (from 96 to 460 U/L) were classified as M1a. […]
Experiment [2] deals with human non-small cell lung cancer (NSCLC) cells. The following applies: subcutaneous, 1 or 10 mg per day; nude mice inoculated with human NSCLC cells; cited from earlier work.
Another experiment deals with lymphosarcoma cells. The following applies: BALB/c mice; cited from earlier work.
Where [3] appears, read: DTIC alone, metastatic melanoma.

With `CN(C)/N=N/c1[nH]cnc1C(N)=O` [DTIC, Dacarbazine], the actual overall responses in the experiment with metastatic melanoma (DTIC alone, metastatic melanoma, J Clin Oncol and ASCO proceedings 2004) is 5.5-6.8%. In addition, in the experiment with metastatic melanoma (setting [3]), the “duration of responses (short-lived)” value is recorded as “three to six” and the “effect of responses on patients' overall survival” value is “no evidence that these responses have any effect on the patients' overall survival”. Further, in the experiment on metastatic melanoma (literature population similar to 16% M1a, 25% M1b, 59% M1c), the DTIC efficacy is 5%.
Consider “thymosin alpha 1 (SDAAVDTSSEITTKDLKEKKEVVEEAEN; ends and bridges not checked; UniProt P06454 2-29, looked up) [a compound well known in the medical field]”, for which the “dose-response effect on tumor response” value in experiment [1] was “clear dose-response effect”. The tumor volume result in experiment [2] was “significantly decreased”. For the same molecule, in the experiment on lymphosarcoma cells, the “liver and lung metastases” value is “significantly reduced”; the local sarcoma growth entry is “significantly reduced”.

The values above are taken from patent US20090186000A1, “USE OF THYMOSIN ALPHA 1 FOR PREPARING A MEDICAMENT FOR THE TREATMENT OF STAGE IV MALIGNANT MELANOMA” (SIGMA-TAU INDUSTRIE FARMACEUTICHE RIUNITE S.P.A., priority 2006, published 2009).
